Assay results reported in ChEMBL document CHEMBL5143732 (J Med Chem, 2022).
Values after ≈ are worked out from the molar mass of the structure shown.

How the values were obtained:
Assay type in all cases: functional
Candida tropicalis = assay: Antifungal activity against Candida tropicalis assessed as inhibition of fungal growth measured after 48 hrs by CLSI based agar dilution method
Pichia kudriavzevii [1] = assay: Antifungal activity against Candida krusei assessed as inhibition of fungal growth measured after 48 hrs by CLSI based agar dilution method
Candida parapsilosis = assay: Antifungal activity against Candida parapsilosis assessed as inhibition of fungal growth measured after 48 hrs by CLSI based agar dilution method; settings: Lodderomyces parapsilosis
Cryptococcus neoformans = assay: Antifungal activity against Cryptococcus neoformans ATCC 32609 assessed as inhibition of fungal growth measured after 48 hrs by CLSI based agar dilution method
Candida albicans = assay: Antifungal activity against Candida albicans assessed as inhibition of fungal growth measured after 48 hrs by CLSI based agar dilution method
Pichia kudriavzevii [2] = assay: Antifungal activity against Candida krusei ATCC 6258 assessed as inhibition of fungal growth measured after 48 hrs by CLSI based agar dilution method

| Compound | MIC (Candida tropicalis) | MIC (Pichia kudriavzevii [1]) | MIC (Candida parapsilosis) | MIC (Cryptococcus neoformans) | MIC (Candida albicans) | MIC (Pichia kudriavzevii [2]) |
| --- | --- | --- | --- | --- | --- | --- |
| COC(=O)NNC(=O)[C@H]1[C@@H]2C[C@@H](O[C@@H]3O[C@H](C)[C@@H](O)[C@H](NC(=O)CCN)[C@@H]3O)/C=C/C=C/C=C/C=C/C=C/C=C/C=C/[C@H](C)[C@@H](O)[C@@H](C)[C@H](C)OC(=O)C[C@H](O)C[C@H](O)CC[C@@H](O)[C@H](O)C[C@H](O)C[C@](O)(C[C@@H]1O)O2 | 8 µg/mL (≈ 7.5 µM) | 0.5 µg/mL (≈ 0.468 µM) | 8 µg/mL (≈ 7.5 µM) | 0.25 µg/mL (≈ 0.234 µM) | 0.25 µg/mL (≈ 0.234 µM) | 8 µg/mL (≈ 7.5 µM) |
| C[C@@H]1[C@H](O)[C@@H](C)/C=C/C=C/C=C/C=C/C=C/C=C/C=C/[C@H](O[C@@H]2O[C@H](C)[C@@H](O)[C@H](NC(=O)CCN)[C@@H]2O)C[C@@H]2O[C@](O)(C[C@@H](O)C[C@@H](O)[C@H](O)CC[C@@H](O)C[C@@H](O)CC(=O)O[C@H]1C)C[C@H](O)[C@H]2C(=O)NCCO | 8 µg/mL (≈ 7.71 µM) | 2 µg/mL (≈ 1.93 µM) | 8 µg/mL (≈ 7.71 µM) | 2 µg/mL (≈ 1.93 µM) | 2 µg/mL (≈ 1.93 µM) | 4 µg/mL (≈ 3.85 µM) |
| CNCC(=O)N[C@@H]1[C@H](O)[C@H](O[C@H]2/C=C/C=C/C=C/C=C/C=C/C=C/C=C/[C@H](C)[C@@H](O)[C@@H](C)[C@H](C)OC(=O)C[C@H](O)C[C@H](O)CC[C@@H](O)[C@H](O)C[C@H](O)C[C@]3(O)C[C@H](O)[C@@H](C(=O)NNC(C)=O)[C@H](C2)O3)O[C@H](C)[C@H]1O | 4 µg/mL (≈ 3.81 µM) | 0.5 µg/mL (≈ 0.476 µM) | 2 µg/mL (≈ 1.9 µM) | 0.125 µg/mL (≈ 0.119 µM) | 0.125 µg/mL (≈ 0.119 µM) | 4 µg/mL (≈ 3.81 µM) |
| CNCC(=O)N[C@@H]1[C@H](O)[C@H](O[C@H]2/C=C/C=C/C=C/C=C/C=C/C=C/C=C/[C@H](C)[C@@H](O)[C@@H](C)[C@H](C)OC(=O)C[C@H](O)C[C@H](O)CC[C@@H](O)[C@H](O)C[C@H](O)C[C@]3(O)C[C@H](O)[C@@H](C(=O)N4CCN(CCN(C)C)CC4)[C@H](C2)O3)O[C@H](C)[C@H]1O | 1 µg/mL (≈ 0.882 µM) | 2 µg/mL (≈ 1.76 µM) | 1 µg/mL (≈ 0.882 µM) | 1 µg/mL (≈ 0.882 µM) | 1 µg/mL (≈ 0.882 µM) | 4 µg/mL (≈ 3.53 µM) |
| CNCC(=O)N[C@@H]1[C@H](O)[C@H](O[C@H]2/C=C/C=C/C=C/C=C/C=C/C=C/C=C/[C@H](C)[C@@H](O)[C@@H](C)[C@H](C)OC(=O)C[C@H](O)C[C@H](O)CC[C@@H](O)[C@H](O)C[C@H](O)C[C@]3(O)C[C@H](O)[C@@H](C(=O)N4CCN(C(C)=O)CC4)[C@H](C2)O3)O[C@H](C)[C@H]1O | 4 µg/mL (≈ 3.62 µM) | 4 µg/mL (≈ 3.62 µM) | 4 µg/mL (≈ 3.62 µM) | 2 µg/mL (≈ 1.81 µM) | 2 µg/mL (≈ 1.81 µM) | 8 µg/mL (≈ 7.24 µM) |
| CNCC(=O)N[C@@H]1[C@H](O)[C@H](O[C@H]2/C=C/C=C/C=C/C=C/C=C/C=C/C=C/[C@H](C)[C@@H](O)[C@@H](C)[C@H](C)OC(=O)C[C@H](O)C[C@H](O)CC[C@@H](O)[C@H](O)C[C@H](O)C[C@]3(O)C[C@H](O)[C@@H](C(=O)NCCCN(C)C)[C@H](C2)O3)O[C@H](C)[C@H]1O | 2 µg/mL (≈ 1.85 µM) | 2 µg/mL (≈ 1.85 µM) | 4 µg/mL (≈ 3.71 µM) | 1 µg/mL (≈ 0.926 µM) | 2 µg/mL (≈ 1.85 µM) | 16 µg/mL (≈ 14.8 µM) |
| C[C@@H]1[C@H](O)[C@@H](C)/C=C/C=C/C=C/C=C/C=C/C=C/C=C/[C@H](O[C@@H]2O[C@H](C)[C@@H](O)[C@H](NC(=O)CCN)[C@@H]2O)C[C@@H]2O[C@](O)(C[C@@H](O)C[C@@H](O)[C@H](O)CC[C@@H](O)C[C@@H](O)CC(=O)O[C@H]1C)C[C@H](O)[C@H]2C(=O)NCCN(C)C | 0.5 µg/mL (≈ 0.469 µM) | 0.5 µg/mL (≈ 0.469 µM) | 2 µg/mL (≈ 1.88 µM) | 0.125 µg/mL (≈ 0.117 µM) | 0.5 µg/mL (≈ 0.469 µM) | 16 µg/mL (≈ 15 µM) |

More lines, now with the values ahead:

| MIC (Candida tropicalis) | MIC (Pichia kudriavzevii [1]) | MIC (Candida parapsilosis) | MIC (Cryptococcus neoformans) | MIC (Candida albicans) | MIC (Pichia kudriavzevii [2]) | Compound |
| --- | --- | --- | --- | --- | --- | --- |
| 0.25 µg/mL (≈ 0.22 µM) | 2 µg/mL (≈ 1.76 µM) | 2 µg/mL (≈ 1.76 µM) | 0.5 µg/mL (≈ 0.44 µM) | 0.5 µg/mL (≈ 0.44 µM) | 16 µg/mL (≈ 14.1 µM) | C[C@@H]1[C@H](O)[C@@H](C)/C=C/C=C/C=C/C=C/C=C/C=C/C=C/[C@H](O[C@@H]2O[C@H](C)[C@@H](O)[C@H](NC(=O)COCCN)[C@@H]2O)C[C@@H]2O[C@](O)(C[C@@H](O)C[C@@H](O)[C@H](O)CC[C@@H](O)C[C@@H](O)CC(=O)O[C@H]1C)C[C@H](O)[C@H]2C(=O)N1CCN(CCO)CC1 |
| 0.5 µg/mL (≈ 0.446 µM) | 2 µg/mL (≈ 1.78 µM) | 4 µg/mL (≈ 3.57 µM) | 0.25 µg/mL (≈ 0.223 µM) | 0.5 µg/mL (≈ 0.446 µM) | 32 µg/mL (≈ 28.5 µM) | CNCC(=O)N[C@@H]1[C@H](O)[C@H](O[C@H]2/C=C/C=C/C=C/C=C/C=C/C=C/C=C/[C@H](C)[C@@H](O)[C@@H](C)[C@H](C)OC(=O)C[C@H](O)C[C@H](O)CC[C@@H](O)[C@H](O)C[C@H](O)C[C@]3(O)C[C@H](O)[C@@H](C(=O)N4CCN(CCOC)CC4)[C@H](C2)O3)O[C@H](C)[C@H]1O |
| 1 µg/mL (≈ 0.869 µM) | 2 µg/mL (≈ 1.74 µM) | 2 µg/mL (≈ 1.74 µM) | 1 µg/mL (≈ 0.869 µM) | 1 µg/mL (≈ 0.869 µM) | 16 µg/mL (≈ 13.9 µM) | CNCCOCC(=O)N[C@@H]1[C@H](O)[C@H](O[C@H]2/C=C/C=C/C=C/C=C/C=C/C=C/C=C/[C@H](C)[C@@H](O)[C@@H](C)[C@H](C)OC(=O)C[C@H](O)C[C@H](O)CC[C@@H](O)[C@H](O)C[C@H](O)C[C@]3(O)C[C@H](O)[C@@H](C(=O)N4CCN(CCO)CC4)[C@H](C2)O3)O[C@H](C)[C@H]1O |
